Assays:
[1] = target: GDP-bound NRAS wild-type protein (Homo sapiens, UniProt P01111); experiment: Binding to NRAS by surface plasmon resonance (SPR), Single Cycle Kinetics; settings: GDP-bound NRAS wild-type vs GDP-bound KRAS wild-type, SPR
[2] = target: GDP-bound HRAS wild-type protein (Homo sapiens, UniProt P01112); experiment: Binding to HRAS by surface plasmon resonance (SPR), Single Cycle Kinetics; settings: GDP-bound HRAS wild-type vs GDP-bound KRAS wild-type, SPR
Sequence of GDP-bound HRAS wild-type protein (P01112 whole entry): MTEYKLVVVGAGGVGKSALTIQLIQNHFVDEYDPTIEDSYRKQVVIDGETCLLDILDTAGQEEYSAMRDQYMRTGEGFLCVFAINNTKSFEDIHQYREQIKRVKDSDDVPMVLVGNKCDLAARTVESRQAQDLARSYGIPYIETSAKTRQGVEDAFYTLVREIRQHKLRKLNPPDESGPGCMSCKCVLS

Sequence of GDP-bound NRAS wild-type protein (P01111 whole entry): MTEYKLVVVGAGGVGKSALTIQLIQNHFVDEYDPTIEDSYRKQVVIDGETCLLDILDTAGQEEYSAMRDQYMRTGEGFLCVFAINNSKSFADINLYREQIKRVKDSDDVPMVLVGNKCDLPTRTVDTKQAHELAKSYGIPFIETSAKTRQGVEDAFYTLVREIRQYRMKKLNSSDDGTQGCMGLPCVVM

Row | Structure (SMILES) | NRAS/KRAS (ratio of KD value with respect to NRAS to KD value with respect to KRAS) ([1]; KD ratio) | HRAS/KRAS (ratio of KD value with respect to HRAS to KD value with respect to KRAS) ([2]; KD ratio) | NRAS/KRAS (ratio of KD value with respect to NRAS to KD value with respect to KRAS) [1] | HRAS/KRAS (ratio of KD value with respect to HRAS to KD value with respect to KRAS) [2]
1 | CC[C@H](C)[C@@H]1NC(=O)[C@H](CC(C)C)N(C)C(=O)C[C@@H](C(=O)N2CCOCC2)N(C)C(=O)[C@H](C2CCCC2)N(C)C(=O)C2(CCC2)NC(=O)[C@@H]2C[C@@H](OCC(F)F)CN2C(=O)[C@H](CCc2cc(F)c(C(F)(F)F)c(F)c2)NC(=O)CN(C)C(=O)[C@H](Cc2ccc(C(F)(F)F)cc2)N2CCCCC[C@@H](C2=O)N(C)C(=O)CN(C)C1=O [PP1006] | B (a compound having 3 or more and less than 10 is denoted as B) | B (a compound having 3 or more and less than 10 is denoted as B) |  | 
2 | CC[C@H](C)[C@@H]1NC(=O)[C@H](COC)N(C)C(=O)C[C@@H](C(=O)N(C)C)N(C)C(=O)[C@H](C2CCCC2)N(C)C(=O)C2(CC(C)(C)C2)NC(=O)[C@@H]2C[C@@H](C)CN2C(=O)[C@H](CCc2ccc(C(F)(F)F)c(OC)c2)NC(=O)CN(C)C(=O)[C@H](Cc2ccc(C)cc2)N2CC/C=C\C[C@@H](C2=O)N(C)C(=O)CN(C)C1=O [PP2387] |  |  | A (a compound having 10 or more and less than 20 is denoted as A) | A (a compound having 10 or more and less than 20 is denoted as A)
3 | CCCOC[C@H]1C(=O)N[C@@H]([C@@H](C)CC)C(=O)N(C)CC(=O)N(C)[C@H]2C/C=C\CCN(C2=O)[C@@H](CC2CCC(F)(F)CC2)C(=O)N(C)CC(=O)N[C@@H](CCc2cc(F)c(C(F)(F)F)c(F)c2)C(=O)N2C[C@H](OCC)C[C@H]2C(=O)NC2(CC(C)(C)C2)C(=O)N(C)[C@@H](C(CC)CC)C(=O)N(C)[C@H](C(=O)N(C)C)CC(=O)N1C [PP2472] |  |  | A (a compound having 10 or more and less than 20 is denoted as A) | A (a compound having 10 or more and less than 20 is denoted as A)
4 | CCOC[C@H]1C(=O)N[C@@H]([C@@H](C)CC)C(=O)N(C)CC(=O)N(C)[C@H]2C/C=C\CCN(C2=O)[C@@H](CC2CCCCC2)C(=O)N(C)CC(=O)N[C@@H](CCc2ccc(C(F)(F)F)c(OC)c2)C(=O)N2C[C@H](OCC)C[C@H]2C(=O)NC2(CC(C)(C)C2)C(=O)N(C)[C@@H](C(CC)CC)C(=O)N(C)[C@H](C(=O)N(C)C)CC(=O)N1C [PP2470] |  |  | A (a compound having 10 or more and less than 20 is denoted as A) | A (a compound having 10 or more and less than 20 is denoted as A)
5 | CCO[C@@H]1C[C@H]2C(=O)NC3(CCC3)C(=O)N(C)[C@@H](C3CCCC3)C(=O)N(C)[C@H](C(=O)N3CCOCC3)CC(=O)N(CC)[C@@H](CC(C)C)C(=O)N[C@@H]([C@@H](C)CC)C(=O)N(C)CC(=O)N(C)[C@H]3C[C@@H](C)CCN(C3=O)[C@@H](Cc3ccc(C(F)(F)F)cc3)C(=O)N(C)CC(=O)N[C@@H](CCc3cc(F)c(C(F)(F)F)c(F)c3)C(=O)N2C1 [PP1030] | B (a compound having 3 or more and less than 10 is denoted as B) | B (a compound having 3 or more and less than 10 is denoted as B) |  | 
6 | CCC[C@H]1C(=O)N[C@@H]([C@@H](C)CC)C(=O)N(C2CC2)CC(=O)N(C)[C@H]2C/C=C\CCN(C2=O)[C@@H](Cc2ccc(C(F)(F)F)cc2)C(=O)N(C)CC(=O)N[C@@H](CCc2cc(F)c(C(F)(F)F)c(F)c2)C(=O)N2C[C@H](OCC)C[C@H]2C(=O)NC2(CC(C)(C)C2)C(=O)N(C)[C@@H](C2CCCC2)C(=O)N(C)[C@H](C(=O)N(C)C)CC(=O)N1C [PP2101] |  |  | A (a compound having 10 or more and less than 20 is denoted as A) | B (a compound having 3 or more and less than 10 is denoted as B)
7 | CCOC[C@H]1C(=O)N[C@@H]([C@@H](C)OCC)C(=O)N(C)CC(=O)N(C)[C@H]2C/C=C\CCN(C2=O)[C@@H](Cc2ccc(C)cc2)C(=O)N(C)CC(=O)N[C@@H](CCc2cc(F)c(C(F)(F)F)c(F)c2)C(=O)N2C[C@@H](C)C[C@H]2C(=O)NC2(CC(C)(C)C2)C(=O)N(C)[C@@H](C2CCCC2)C(=O)N(C)[C@H](C(=O)N(C)CC)CC(=O)N1C [PP2422] |  |  | A (a compound having 10 or more and less than 20 is denoted as A) | A (a compound having 10 or more and less than 20 is denoted as A)
